The numbers were not newly measured in patent US20030064108A1, “TASTE MASKED PHARMACEUTICAL COMPOSITIONS” (priority 1996, published 2003), which cites them from elsewhere.

For the data set the following is noted: 1 g every 6 hours, repeated administration.

`CC(=O)Nc1ccc(O)cc1` [paracetamol]: the mean maximum concentration entry is “about 12 mg/L” and the “mean trough plasma concentration (immediately pre-dose)” value is 3 mg/L.
